# From patent US8278105B2, “Induction, propagation and isolation of liver progenitor cells” (University of Southern California, priority 2008, dated 2012)
# Test system: HES2 or HES3 cells
# Assay: 3i-induction of hepatocyte-like cells from human ES cells; dosages of medium components examined
# Type: cell-based
# Procedure: HES2 or 3 cells were cultured for 5 days on MEF-feeders with 20% FCS hES medium in organ culture dishes. […] Cells were detached as clumps by collagenase and feeder cells were removed by sedimentation in DMEM/F-12 medium.
# They were subsequently propagated using 3i or Kubota's medium following enzymatic dissection.
# HES2 or 3 cells were cultured 5 days on MEF-feeders with 20% FCS hES medium in organ culture dishes.
# Cells were detached as clumps by collagenase and feeder cells were removed by sedimentation in DMEM/F-12 medium.
smiles,measurement,setting,value
c1cc(-c2cnn3cc(-c4ccc(OCCN5CCCCC5)cc4)cnc23)ccn1 [Dorsomorphin],toxicity to the culture,"Dorsomorphin 5 μM, in combination of PD0325901, CHIR99021 and Dorsomorphin",toxic
O=C(NOCC1CC1)c1ccc(F)c(F)c1Nc1ccc(I)cc1Cl [PD184352],effect on hepatic differentiation,"PD184352 0.4 μM, in combination of SU5402, PD184352 and CHIR99021",decreased hepatic differentiation and increased trophectodermal cells
same,effect on hepatic differentiation,"PD184352 0.8 μM, in combination of SU5402, PD184352 and CHIR99021",most efficient
same,effect on hepatic differentiation,"PD184352 1.6 μM, in combination of SU5402, PD184352 and CHIR99021",no difference from 0.8 μM
O=C(NOC[C@H](O)CO)c1ccc(F)c(F)c1Nc1ccc(I)cc1F [PD0325901],efficiency of hepatic differentiation compared with 3i,"PD0325901 0.4 μM, in combination of PD0325901 and CHIR99021",no difference from 3i
same,efficiency of hepatic differentiation compared with 3i,"PD0325901 0.8 μM, in combination of PD0325901 and CHIR99021",more efficient than 3i
same,efficiency of hepatic differentiation,"PD0325901 1.6 μM, in combination of PD0325901 and CHIR99021",no difference from 0.8 μM
"Cc1c[nH]c(/C=C2\C(=O)Nc3ccccc32)c1CCC(=O)O [SU5402, 3-[3-(2-Carboxyethyl)-4-methylpyrrol-2-methylidenyl]-2-indolinone]",effect on hepatic differentiation,"SU5402 1 μM, in combination of SU5402, PD184352 and CHIR99021",decreased hepatic differentiation and increased trophectodermal/neural cells
same,effect on hepatic differentiation,"SU5402 2 μM, in combination of SU5402, PD184352 and CHIR99021",most efficient
same,toxicity to the culture,"SU5402 4 μM, in combination of SU5402, PD184352 and CHIR99021",toxic
